Results from US20070276034A1, “Compounds, compositions and methods for the treatment of synucleinopathies” (priority 2002, published 2007).
Read-outs that look alike come from different tables or passages of the source.

Assays:
Type in all cases: biochemical
[1] = target: T1, Aβ 1-42 fibrils (Homo sapiens, UniProt P05067); experiment: Circular dichroism spectroscopy of Aβ 1-42 fibrils; conditions: for disruption of β-sheet structure in Aβ 1-42 fibrils (CD minima at 218 nm): 3 days co-incubation, 25 μM Aβ 1-42 (FIG. 1, FIG. 2); for dose-response of disruption of β-sheet structure of Aβ 1-42 fibrils (CD minima at 218 nm): Aβ:test compound wt/wt ratios of 1:0.1, 1:1 and 1:10 (FIG. 3)
T1 construct: purchased Bachem Inc
Procedure: Circular dichroism (CD) spectroscopy is a method that can be used to determine the effects of test compounds to disrupt the secondary structure conformation of amyloid fibrils. In one study, as described in this example, circular dichroism spectroscopy was used to determine the effects of different compounds of the invention on β-sheet conformation of Aβ 1-42 fibrils. For this study, Aβ 1-42 (Bachem Inc., Torrance, Calif.) was first dissolved in a 2 mM NaOH solution, maintaining the pH of these solutions above 10. […] Aβ 1-42 was then incubated at 37° C. in the absence or presence of different compounds at an Aβ:test compound wt/wt ratios of 1:0.1, 1:1 and 1:10. After 3 days of incubation, CD spectra were recorded on a Jasco 810 spectropolarimeter (Easton, Md.). All CD spectra were collected with 0.05 cm quartz cells. Wavelength traces were scanned from 190-260 nm at 0.5 nm increments with a bandwidth of 5 nm, at a scan speed of 10 nm/minute, a response time of 32 seconds, and a data pitch of 0.5 nm. The whole system was equilibrated and continuously flushed with nitrogen at 10 ml/minute. […] Ellipticity in degrees was converted to MRE ([Q]; molar residue ellipticity) using the formula [Q]=100•[…]; where Q is the ellipticity in degrees; […]

[2] = target: T2, IAPP fibrils (Homo sapiens, UniProt P10997); experiment: Congo red binding assay with IAPP fibrils; conditions: 3-day incubation
T2 construct: purchased Bachem Inc
T2 sequence (P10997 34-70 limits assumed): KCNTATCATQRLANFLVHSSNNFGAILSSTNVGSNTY
Procedure: (§1) In the Congo red binding assay the ability of a given test compound to alter amyloid (in this case, IAPP) binding to Congo red is quantified. In this assay, IAPP and test compounds were incubated for 3 days and then vacuum filtered through a 0.2 μm filter. The amount of IAPP retained in the filter was then quantitated following staining of the filter with Congo red. After appropriate washing of the filter, any lowering of the Congo red color on the filter in the presence of the test compound (compared to the Congo red staining of the amyloid protein in the absence of the test compound) was indicative of the test compound's ability to diminish/alter the amount of aggregated and congophilic IAPP.
In the study, the ability of IAPP fibrils to bind Congo red in the absence or presence of increasing amounts of the compounds or EDTA (at IAPP:test compound weight ratios of 1:1, 1:0.1, 1:0.01 or 1:0.001) was determined.

[3] = target: T2, IAPP fibrils; experiment: Thioflavin T fluorometry - disruption of type 2 diabetes IAPP fibrils; conditions: 25 μM pre-fibrillized IAPP, 37° C., 3 days; for inhibition: read-out: % Inhibition IAPP (result ± S.D.)
Procedure: In this assay Thioflavin T binds specifically to fibrillar amyloid, and this binding produces a fluorescence enhancement at 485 nm that is directly proportional to the amount of IAPP fibrils present. The higher the fluorescence, the greater the amount of IAPP fibrils present (Naki et al, Lab. Invest. 65:104-110, 1991; Levine III, Protein Sci. 2:404-410, 1993; Amyloid: Int. J. Exp. Clin. Invest. 2:1-6, 1995).
(§2) In this study, 25 μM of pre-fibrillized IAPP (Bachem Inc) was incubated at 37° C. for 3 days either alone, or in the presence of one of the compounds or EDTA (at IAPP:test compound weight ratios of 1:1, 1:0.1, 1:0.01 or 1:0.001). Following 3-days of co-incubation, 50 μl of each incubation mixture was transferred into a 96-well microtiter plate containing 150 μl of distilled water and 50 μl of a Thioflavin T solution (i.e. 500 mM Thioflavin T in 250 mM phosphate buffer, pH 6.8). The fluorescence was read at 485 nm (444 nm excitation wavelength) using an ELISA plate fluorometer after subtraction with buffer alone or compound alone, as blank.

[4] = target: T1, Aβ 1-42 fibrils; experiment: Thioflavin T fluorometry - disruption of pre-formed Aβ 1-42 Alzheimer's fibrils; conditions: 25 μM pre-fibrillized Aβ 1-42, 37° C., 3 days; for inhibition: read-out: % Inhibition Aβ (result ± S.D.)
Text: In one study, Thioflavin T fluorometry was used to determine the effects of the compounds, and of EDTA (as a negative control). In this assay Thioflavin T binds specifically to fibrillar amyloid, and this binding produces a fluorescence enhancement at 485 nm that is directly proportional to the amount of amyloid fibrils formed. The higher the fluorescence, the greater the amount of amyloid fibrils formed (Naki et al., Lab. Invest. 65:104-110, 1991; Levine III, Protein Sci. 2:404-410, 1993; Amyloid: Int. J. Exp. Clin. Invest. 2:1-6, 1995).
as §2, with “Aβ 1-42” for “IAPP”, “Aβ:test” for “IAPP:test”

[5] = target: T1, Aβ 1-42 fibrils; experiment: Congo red binding assay with Aβ 1-42 fibrils; conditions: 3-day incubation
Procedure: as §1, with “a” for “a given”, “Aβ)” for “IAPP)”, “Aβ 1-42” for “IAPP”, “Aβ.” for “IAPP.”
In one study, the ability of Aβ fibrils to bind Congo red in the absence or presence of increasing amounts of the compounds or EDTA (at Aβ:test compound weight ratios of 1:1, 1:0.1, 1:0.01 or 1:0.001) was determined.

[6] = target: T3, monomeric Aβ 1-42 (Homo sapiens, UniProt P05067); experiment: SDS-PAGE/Western blot of Aβ 1-42 after incubation with compounds; conditions: 25 μM pre-fibrillized Aβ 1-42, 37° C., 3 days, 0.2 μm filtrate, antibody 6E10
T3 construct: purchased Bachem Inc
Procedure: In this latter study, triplicate samples of pre-fibrillized Aβ 1-42 (25 μM) was incubated at 37° C. for 3 days, alone or in the presence of the compounds or EDTA. Five micrograms of each sample was then filtered through a 0.2 μm filter. Protein recovered from the filtrate was then loaded, and ran on a 10-20% Tris-Tricine SDS-PAGE, blotted to nitrocellulose and detected using an Aβ-antibody (clone 6E10; Senetek).

[7] = IAPP:test compound wt/wt ratio 1:0.001
[8] = IAPP:test compound wt/wt ratio 1:0.01
[9] = IAPP:test compound wt/wt ratio 1:0.1
[10] = IAPP:test compound wt/wt ratio 1:1
[11] = Aβ:test compound wt/wt ratio 1:0.001
[12] = Aβ:test compound wt/wt ratio 1:0.01
[13] = Aβ:test compound wt/wt ratio 1:0.1
[14] = Aβ:test compound wt/wt ratio 1:1

T1 sequence (P05067 672-713): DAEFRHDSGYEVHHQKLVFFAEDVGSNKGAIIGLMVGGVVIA
T3 sequence (P05067 672-713): as above

Row | SMILES | disruption of β-sheet structure in Aβ 1-42 fibrils (CD minima at 218 nm) [1] | dose-response of disruption of β-sheet structure of Aβ 1-42 fibrils (CD minima at 218 nm) [1] | % Inhibition IAPP (result ± S.D.), Congo red binding [2, 7] | % Inhibition IAPP (result ± S.D.), Congo red binding [2, 8] | % Inhibition IAPP (result ± S.D.), Congo red binding [2, 9] | % Inhibition IAPP (result ± S.D.), Congo red binding [2, 10] | inhibition [3, 7] | inhibition [3, 8] | inhibition [3, 9] | inhibition [3, 10] | inhibition [4, 11] | inhibition [4, 12] | inhibition [4, 13] | inhibition [4, 14] | detection of Aβ 1-42 monomers (~4 kilodalton band) on Western blot [6] | also measured
1 | Oc1ccc(CN[C@@H]2CCCC[C@H]2NCc2ccc(O)c(O)c2)cc1O (relative stereo) [Compound 12, N,N′-bis(3,4-dihydroxybenzyl)-trans-1,2-diaminocyclohexane] | marked disruption of β-sheet structure | dose-dependent decrease in the minima | 0.0 ± 2.40% | 6.9 ± 2.45% | 8.3 ± 0.85% | 39.8 ± 0.26% | 13 ± 10.3% | 37.5 ± 0.76% | 86 ± 0.76% | 99.9 ± 0.19% | 0% | 10.8 ± 21.9% | 82 ± 1.13% | 99.7 ± 0.17% |  | 
2 | CN1C2CCC1C(Cc1ccc(O)c(O)c1)C(=O)C2Cc1ccc(O)c(O)c1 (stereo not drawn) [Compound 19, 2,4-bis(3,4-dihydroxybenzyl)-3-tropinone] |  |  |  | 6.0 ± 0.78% | 21.0 ± 3.70% | 49.3 ± 3.97% |  |  |  |  |  |  |  |  | not detected | % Inhibition Aβ (result ± S.D.), Congo red binding [5, 12]: 7.4 ± 2.20%; % Inhibition Aβ (result ± S.D.), Congo red binding [5, 13]: 22.4 ± 2.19%; % Inhibition Aβ (result ± S.D.), Congo red binding [5, 14]: 48.1 ± 2.00%; % Inhibition IAPP (result ± S.D.) [3, 7]: 16.7 ± 10.20%; % Inhibition IAPP (result ± S.D.) [3, 8]: 51.7 ± 2.98%; % Inhibition IAPP (result ± S.D.) [3, 9]: 94.0 ± 0.10%; % Inhibition IAPP (result ± S.D.) [3, 10]: 100.0 ± 0.24%; % Inhibition Aβ (result ± S.D.) [4, 11]: 10.8 ± 1.38%; % Inhibition Aβ (result ± S.D.) [4, 12]: 46.2 ± 2.98%; % Inhibition Aβ (result ± S.D.) [4, 13]: 91.1 ± 0.66%; % Inhibition Aβ (result ± S.D.) [4, 14]: 99.1 ± 0.56%
3 | O=C(C=Cc1ccc(O)c(O)c1)NCc1ccc(O)c(O)c1 [Compound 61, 3,4-dihydroxycinnamic acid 3,4-dihydroxybenzylamide] | marked disruption of β-sheet structure | dose-dependent decrease in the minima | 0.0 ± 3.87% | 4.0 ± 1.78% | 0.0 ± 7.07% | 23.7 ± 0.39% | 0.5 ± 6.33% | 35.4 ± 5.68% | 83.6 ± 1.27% | 96.8 ± 0.47% | 26 ± 7.51% | 16.9 ± 1.39% | 80.1 ± 4.76% | 100 ± 0.41% |  | 
4 | O=C(NCCc1ccc(O)c(O)c1)Nc1ccc(O)c(O)c1 [Compound 78, 1-(3,4-dihydroxyphenyl)-3-(3,4-dihydroxyphenethyl)urea] | marked decrease in the minima |  | 6.6 ± 3.04% | 19.9 ± 2.12% | 16.7 ± 6.80% | 56.3 ± 5.32% | 15.3 ± 4.73% | 58.3 ± 1.2% | 92.4 ± 0.27% | 99.5 ± 0.26% | 22.4 ± 5.63% | 57.8 ± 4.63% | 89.7 ± 1.8% | 100 ± 0.78% | not detected | 
